Series [1] addresses T1, human serum albumin (HSA) (Homo sapiens, UniProt P02768).
T1 construct: purchased Merck (Darmstadt, Germany) A1653
The experiment in a line: UV-Vis spectroscopic studies: HSA-induced increase in the absorbance of Heme site ligands. It counts as binding. As to conditions: for Higher binding constant by Hyperquad evaluation of UV-Vis data: compared with quenching studies and Scatchard plot evaluation; for Kd at 5 μM: human, human serum albumin (HSA) solution in PBS. Here is the method:
UV-Vis spectra were recorded in PBS (pH 7.4) at 25 °C, employing a Jasco V730 UV-Vis spectrophotometer (Tokyo, Japan). Absorption spectra of Heme site ligands (5.0 μM each) have been recorded without and with increasing concentrations of HSA (0.0, 0.2, 0.5, 0.7, 1.0, 1.5, 2.0, 5.0, 10, and 15 μM). Binding constants (K) of ligand–albumin complexes were determined based on the HSA-induced increase in their absorbance (at 480 nm for BIL, at 390 nm for BVD, at 400 nm for HEM, and at 460 nm for MO). […] Binding constants (K; unit: L/mol) were calculated with linear and non-linear fitting, using the Scatchard equation [58] and the Hyperquad2006 software, respectively. The Scatchard equation for 1:1 binding model follows:(1) (A−A0)/[HSA]0=(Aligand−HSA−A0)×K−(A−A0)×K where A0 and A are the absorbance values of the ligand in the absence and presence of HSA, respectively; Aligand-HSA is the absorbance when each ligand molecule bound to HSA, and [HSA] is the concentration of albumin (unit: mol/L).
The following equations are implemented in the Hyperquad program code: (2) aLIGAND+bHSA ↔LIGANDaHSAb (3) βab=[LIGANDaHSAb]/[LIGAND]^a[HSA]^b where a and b indicate the stoichiometry associated with the equilibria in the solution. All equilibrium constants are defined as overall association constants (β):(4) LIGAND+HSA ↔LIGAND HSA; β1=[LIGAND HSA]/[LIGAND][HSA] (5) 2 LIGAND+HSA ↔LIGAND2 HSA; β2=[LIGAND2HSA]/[LIGAND]^2[HSA] (6) aLIGAND+HSA ↔LIGANDaHSA; βa=[LIGANDaHSA]/[LIGAND]^a[HSA]
The stepwise association constants (K) are defined by β:(7) β1=K1; β2=K1×K2; βa=K1×K2×…×Ka
During data evaluation the stoichiometry and association constants of the ligand binding process were calculated using the lowest standard deviation model.

Series [2] has as its target T1, human serum albumin (HSA). In words: Fluorescence quenching of HSA by Heme site ligands. It counts as binding. To be noted: HSA 2 μM; for Fluorescence Quenching Stern–Volmer Plot logKSV: KSV unit L/mol; for Kd / Fluorescence Quenching Hyperquad logK: K unit L/mol; for Kd: read-out: Fluorescence Quenching Hyperquad logK (converted). Here is the method:
Fluorescence spectra were recorded in PBS (pH 7.4) at 25 °C, employing a Hitachi F-4500 fluorometer (Tokyo, Japan). Binding constants of BIL, BVD, HEM, and MO were also determined based on fluorescence quenching studies (λex = 295 nm). Emission spectra of HSA (2.0 μM) were recorded in the absence and presence of the increasing concentrations of Heme site ligands (0.0, 0.5, 1.0, 2.0, 3.0, 5.0, 7.0, 10, and 15 μM). Before the evaluation of emission intensity data at 340 nm, the inner-filter effect of ligand molecules was corrected using the following equation [60, 61]:(8) Icor=Iobs×e^(Aex+Aem)/2 where Icor and Iobs are the corrected and observed fluorescence emission intensities, respectively; Aex and Aem are the absorbance values of Heme site ligands at 295 and 340 nm, respectively.

The next series has as its target T2, WAR–HSA complex (Homo sapiens, UniProt P02768).
T2 construct: purchased Merck (Darmstadt, Germany) A1653
In words: Effects of ligands on the fluorescence emission signal of WAR–HSA complex. It is filed as binding. As to conditions: WAR 1 μM, HSA 3.5 μM, PBS pH 7.4, λex 317 nm; for Effect on the fluorescence emission signal of WAR (WAR–HSA complex): ligand 0–10 μM, λem 379 nm.

The target of series [3] is T3, WAR–HSA interaction (Homo sapiens, UniProt P02768).
T3 construct: purchased Merck (Darmstadt, Germany) A1653
In words: Ultrafiltration: filtered fraction of WAR in the presence of HSA and ligands. It is filed as binding. As to conditions: WAR 1.0 μM, HSA 5.0 μM. How it is done:
Amicon Ultra-0.5 centrifugal filters (Merck, Darmstadt, Germany) with 30 kDa molecular weight cut-off (MWCO) value were applied. […] Before ultrafiltration, filter units were washed once with water (500 μL) then once with PBS (500 μL). […] A 500 μL aliquot of samples was transferred to the filter and centrifuged for 10 min at 7500 g and 25 °C (fixed angle rotor).
(§1) Chromatographic data were evaluated employing ChromNAV2 software (Jasco, Tokyo, Japan). […] Briefly, samples (20 μL) were driven through a guard column (SecurityGuard C18, 4.0 × 3.0 mm; Phenomenex, Torrance, CA, USA) linked to a Nova-Pak C18 analytical column (150 × 3.9 mm, 4 μm; Waters, Milford, MA, USA). The isocratic elution was performed at room temperature with 1.0 mL/min flow rate applying sodium phosphate buffer (20 mM, pH 7.0), methanol, and acetonitrile (70:25:5 v/v%) as the mobile phase.

The target of series [4] is T3, WAR–HSA interaction. The experiment in a line: Ultracentrifugation: WAR in the supernatant in the presence of HSA and BIL or MO. It is filed as binding. As to conditions: WAR 1.0 μM, HSA 3.0 μM, ligand 5 or 20 μM, PBS pH 7.4; 170,000× g, 16 h, 20 °C; HPLC-FLD. How it is done: With the optimal conditions of ultracentrifugation, we can sediment the albumin fraction of a solution without the disruption of ligand–HSA interactions. Consequently, the free fraction of a ligand can be quantified from the supernatant. […] In 11 × 34 mm PC tubes (Beckman Coulter, Brea, CA, USA), a 900 μL aliquot of samples was centrifuged for 16 h at 170,000× g and 20 °C applying a Beckman Coulter Optima MAX-XP tabletop ultracentrifuge (with MLA-130 fixed-angle rotor). Then a 200 μL volume of the supernatant was carefully removed and directly analyzed by HPLC-FLD (see in Section 3.6).
as §1, with “We applied an integrated HPLC system (Jasco, Tokyo, Japan) built up from an autosampler (AS-4050), a binary pump (PU-4180), and a fluorescence detector (FP-920). Chromatographic” for “Chromatographic”

Another series relates to HSA. To be noted: cited from earlier work.
For series [5] the following is noted: cited from earlier work.
Setting [6] is: linear fitting, K unit L/mol, ligand 5 μM, HSA 0–15 μM, PBS pH 7.4, 25 °C, mean ± SEM, read-out: UV-Vis Spectroscopy Scatchard Plot logK (converted).
Setting [7] is: non-linear fitting, K unit L/mol, ligand 5 μM, HSA 0–15 μM, PBS pH 7.4, 25 °C, mean ± SEM, read-out: UV-Vis Spectroscopy Hyperquad logK (converted).
The mark [8] stands for this setting: linear fitting, whole ligand range 0–15 μM, PBS pH 7.4, λex 295 nm, λem 340 nm, mean ± SEM.
The mark [9] stands for this setting: non-linear fitting, whole ligand range 0–15 μM, PBS pH 7.4, mean ± SEM.
The mark [10] stands for this setting: ligand 0–20 μM, PBS pH 7.4, 30 kDa MWCO, HPLC-FLD.
The mark [11] stands for this setting: evaluated in the 0.5–3 µM concentration range, PBS pH 7.4.
Where [12] appears, read: evaluated in the 3–15 µM concentration range, PBS pH 7.4.

Several values for one entry are separate records, joined by “and”; a condition that tells them apart may be missing. Equal values may be shown once. Read-outs that look alike come from different tables or passages of the source.

T2 sequence (P02768 25-609, one chain of several): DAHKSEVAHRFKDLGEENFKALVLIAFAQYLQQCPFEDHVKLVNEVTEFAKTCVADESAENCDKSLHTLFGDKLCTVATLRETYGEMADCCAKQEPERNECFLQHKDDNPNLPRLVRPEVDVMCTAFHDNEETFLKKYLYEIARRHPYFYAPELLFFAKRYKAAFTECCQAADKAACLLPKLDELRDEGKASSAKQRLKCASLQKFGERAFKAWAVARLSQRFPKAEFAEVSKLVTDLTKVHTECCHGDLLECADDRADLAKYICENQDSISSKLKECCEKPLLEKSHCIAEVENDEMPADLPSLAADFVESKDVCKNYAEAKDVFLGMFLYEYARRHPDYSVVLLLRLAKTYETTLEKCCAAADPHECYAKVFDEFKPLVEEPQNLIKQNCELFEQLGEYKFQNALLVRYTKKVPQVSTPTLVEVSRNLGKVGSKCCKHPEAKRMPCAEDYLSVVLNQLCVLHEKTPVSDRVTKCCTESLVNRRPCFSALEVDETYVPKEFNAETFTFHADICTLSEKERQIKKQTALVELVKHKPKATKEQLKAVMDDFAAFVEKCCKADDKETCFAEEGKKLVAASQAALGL
T3 sequence (P02768 25-609): as the sequence (P02768 25-609, one chain of several) above
T1 sequence (P02768 25-609): as the sequence (P02768 25-609, one chain of several) above

Regarding `C=CC1=C(C)/C(=C/c2[nH]c(Cc3[nH]c(/C=C4\NC(=O)C(C)=C4C=C)c(C)c3CCC(=O)O)c(CCC(=O)O)c2C)NC1=O` [BIL, bilirubin], the “Higher binding constant by Hyperquad evaluation of UV-Vis data” value in series [1] is reported as “approximately 100 fold”. The Kd is 1.48 µM in series [1] (setting [6]), 0.0295 µM in series [1] (setting [7]) and 4.47 µM in series [2] (setting [9]). Also, the “Fluorescence Quenching Stern–Volmer Plot logKSV” value in series [2] (setting [8]) came to 5.26 ± 0.01. Besides, the “Effect on the fluorescence emission signal of WAR (WAR–HSA complex)” value (“Effect … (WAR–HSA complex)” below) on WAR–HSA complex is on record as “strongly reduced”. Besides, the “Effect on the filtered fraction of WAR (ultrafiltration)” value (from here on “Effect on the filtered fraction of WAR”) at WAR–HSA interaction [3] (setting [10]) is listed as “strongly increased”. For the same compound, the entries for the “Effect on albumin binding of WAR (ultrafiltration)” value on WAR–HSA interaction [3] (ligand 5 μM) and at WAR–HSA interaction [3] (ligand 20 μM) were “disrupted” and “almost completely abolished”, respectively. Further, at WAR–HSA interaction [4], the “Effect on the unbound fraction of WAR in the supernatant (ultracentrifugation)” value is recorded as “significantly increased”.
As to `C=CC1=C(C)/C(=C/C2=NC(=C\c3[nH]c(/C=C4\NC(=O)C(C)=C4C=C)c(C)c3CCC(=O)O)/C(CCC(=O)O)=C2C)NC1=O` [BVD, biliverdin], the Kd in series [1] (setting [6]) is 11 µM; in series [1] (setting [7]), 2.82 µM; in series [2] (setting [9]), 3.55 µM. The “Fluorescence Quenching Stern–Volmer Plot logKSV” value in series [2] (setting [8]) is listed as 5.37 ± 0.03. Moreover, the “Effect … (WAR–HSA complex)” value on WAR–HSA complex is recorded as “strongly reduced”. Further, the “logK of the BVD–HSA complex” value with HSA (K in L/mol) was “≈ 6”. Further, in the series with HSA, the “binding constant of the BVD–HSA complex” value is on record as “approximately 10^6 L/mol”.
For the compound `CN(C)c1ccc(/N=N/c2ccc(S(=O)(=O)O)cc2)cc1` [MO, methyl orange], the Kd at 5 μM is 64.6 µM in series [1] (pH 7.4, linear fitting, K unit L/mol, ligand 5 μM, HSA 0–15 μM, PBS pH 7.4, 25 °C, mean ± SEM, read-out: UV-Vis Spectroscopy Scatchard Plot logK (converted)) and 18.2 µM in series [1] (pH 7.4, non-linear fitting, K unit L/mol, ligand 5 μM, HSA 0–15 μM, PBS pH 7.4, 25 °C, mean ± SEM, read-out: UV-Vis Spectroscopy Hyperquad logK (converted)). The Kd in series [2] (human, human serum albumin (HSA) solution in PBS, non-linear fitting, whole ligand range 0–15 μM, PBS pH 7.4, mean ± SEM) is 14.8 µM. Also, the “Fluorescence Quenching Stern–Volmer Plot logKSV” value in series [2] (setting [8]) is on record as 4.76 ± 0.02. Further, the “Effect … (WAR–HSA complex)” value at WAR–HSA complex was “strongly reduced”. Further, the “Effect on the filtered fraction of WAR” value is “significantly reduced” at WAR–HSA interaction [3] (ligand 1 μM) and “further gradual decrease” at WAR–HSA interaction [3] (ligand 2–20 μM). On WAR–HSA interaction [4], the “Effect on the unbound fraction of WAR in the supernatant (ultracentrifugation)” value is “considerably decreased”. Besides, the “logK of the MO–HSA complex” value in the series with HSA (K in L/mol) is recorded as 5.4. Further, the “binding constant of the MO–HSA complex” value with HSA was 230000 L/mol.
Regarding `CC(=O)CC(c1ccccc1)c1c(O)c2ccccc2oc1=O` (stereo not drawn) [WAR, warfarin], the “binding constant (K) of WAR–HSA complex” value in the series on HSA (spectroscopic, affinity chromatography and ultracentrifugation experiments) was “approximately 2 × 10^5 L/mol”. For the same compound, the plasma protein binding result in series [5] is “≈ 99%”.
As to `C=CC1=C(C)c2cc3[n-]c(cc4[n-]c(cc5nc(cc1n2)C(C)=C5C=C)c(C)c4CCC(=O)O)c(CCC(=O)O)c3C.[Fe+2]` [heme], the “Effect on the binding affinity of certain Site I ligands toward HSA” value with HSA (Site I ligands: abacavir, efavirenz, zidovudine, furosemide, indomethacin, phenylbutazone) was “strongly decrease”. For the same compound, the “Effect on the binding constant of the WAR–HSA complex” value in the series with HSA was “only slightly reduced”.
For the compound `CCCCCCCCCCCCCCCCCC(=O)O` [stearic acid], the “Increase in the emission intensity at 379 nm (WAR–HSA complex)” value at WAR–HSA complex (fatty acid 0–10 μM) is listed as roughly 2.5 fold. Moreover, the “Effect on the filtered fraction of WAR” value at WAR–HSA interaction [3] (setting [10]) is on record as “decreased”.
Turning to hemin, the “Higher binding constant by Hyperquad evaluation of UV-Vis data” value in series [1] was “approximately 100 fold”. Further, the “UV-Vis Spectroscopy Scatchard Plot logK” value in series [1] (linear fitting, K unit L/mol, ligand 5 μM, HSA 0–15 μM, PBS pH 7.4, 25 °C, mean ± SEM) was found to be 5.74 ± 0.04. The “UV-Vis Spectroscopy Hyperquad logK” value in series [1] (non-linear fitting, K unit L/mol, ligand 5 μM, HSA 0–15 μM, PBS pH 7.4, 25 °C, mean ± SEM) was 7.4 and 7.35 ± 0.03. Further, the “Fluorescence Quenching Hyperquad logK” value in series [2] (setting [11]) is listed as 5.34 ± 0.01; in series [2] (setting [12]), 5.53 ± 0.02; in series [2] (setting [9]) it was 5.49 ± 0.02. The “Fluorescence Quenching Stern–Volmer Plot logKSV” value in series [2] (setting [11]) stood at 5.23 ± 0.02; in series [2] (setting [12]), 5.55 ± 0.03; in series [2] (setting [8]), 5.54 ± 0.02. Further, the “Effect … (WAR–HSA complex)” value on WAR–HSA complex is reported as “strongly reduced”. Also, the “Effect on the filtered fraction of WAR” value on WAR–HSA interaction [3] (ligand 1–5 μM) is “decreased”; on WAR–HSA interaction [3] (ligand 10 and 20 μM), “gradual elevation”.
